Laboratory results: ChEMBL document CHEMBL4020749, “Phenanthridin-6-one derivatives as the first class of non-steroidal pharmacological chaperones for Niemann-Pick disease type C1 protein” (Bioorg Med Chem Lett, 2017)
Activity calls are given as the source filed them. The rule behind the calls is not given here.

Columns and labels:
[1] = biological target: NPC intracellular cholesterol transporter 1 (Homo sapiens, UniProt O15118, I1061T); test: (§1) Chaperone activity at FLAG/GFP-tagged NPC1 I1061T mutant (unknown origin) expressed in HEK293 cells assessed as increase in localization of protein mutant in late endosomes after 24 hrs by Hoechst 33342 staining based fluorescence microscopic analysis; assay type: cell-based
[2] = tested on: T1, NPC intracellular cholesterol transporter 1 (Homo sapiens), O15118 [I1061T]; test: Chaperone activity at FLAG/GFP-tagged NPC1 I1061T mutant (unknown origin) expressed in HEK293 cells assessed as increase in localization of protein mutant in late endosomes at 30 uM after 24 hrs by Hoechst 33342 staining based fluorescence microscopic analysis; assay type: cell-based
T1 sequence (whole entry): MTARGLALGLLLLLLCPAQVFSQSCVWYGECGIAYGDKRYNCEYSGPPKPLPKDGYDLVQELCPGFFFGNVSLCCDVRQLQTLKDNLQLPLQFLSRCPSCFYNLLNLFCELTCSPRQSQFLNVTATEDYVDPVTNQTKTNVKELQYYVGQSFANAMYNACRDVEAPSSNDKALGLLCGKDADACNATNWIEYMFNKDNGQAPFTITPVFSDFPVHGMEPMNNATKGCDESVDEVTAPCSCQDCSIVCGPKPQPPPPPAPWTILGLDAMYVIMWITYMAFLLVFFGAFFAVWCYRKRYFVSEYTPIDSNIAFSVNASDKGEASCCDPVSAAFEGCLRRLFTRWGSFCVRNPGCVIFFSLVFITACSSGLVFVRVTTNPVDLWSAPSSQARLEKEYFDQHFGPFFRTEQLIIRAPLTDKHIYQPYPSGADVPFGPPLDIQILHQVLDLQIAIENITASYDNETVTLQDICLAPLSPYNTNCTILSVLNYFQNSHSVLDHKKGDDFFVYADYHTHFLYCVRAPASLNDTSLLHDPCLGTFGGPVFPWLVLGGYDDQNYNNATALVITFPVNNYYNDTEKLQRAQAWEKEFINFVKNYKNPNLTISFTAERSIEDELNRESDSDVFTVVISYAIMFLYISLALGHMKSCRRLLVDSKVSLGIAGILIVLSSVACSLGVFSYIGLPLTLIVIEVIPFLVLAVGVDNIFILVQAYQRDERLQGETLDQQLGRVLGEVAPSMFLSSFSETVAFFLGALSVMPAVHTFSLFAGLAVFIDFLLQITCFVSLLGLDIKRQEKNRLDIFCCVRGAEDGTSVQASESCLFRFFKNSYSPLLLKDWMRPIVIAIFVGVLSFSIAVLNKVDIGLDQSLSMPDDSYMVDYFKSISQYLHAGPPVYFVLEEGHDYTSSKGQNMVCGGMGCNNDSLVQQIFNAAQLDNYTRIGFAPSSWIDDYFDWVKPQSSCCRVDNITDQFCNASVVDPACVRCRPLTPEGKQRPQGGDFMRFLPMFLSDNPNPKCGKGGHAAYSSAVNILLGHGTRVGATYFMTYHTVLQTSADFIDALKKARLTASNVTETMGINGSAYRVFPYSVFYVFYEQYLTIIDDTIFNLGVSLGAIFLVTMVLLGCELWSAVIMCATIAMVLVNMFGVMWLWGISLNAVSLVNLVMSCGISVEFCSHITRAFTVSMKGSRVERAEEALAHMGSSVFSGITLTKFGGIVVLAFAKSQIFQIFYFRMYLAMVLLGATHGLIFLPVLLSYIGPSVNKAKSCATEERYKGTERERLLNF

[3] = Solubility of the compound in DMEM medium at 10 uM; assay type: physicochemical
[4] = tested on: T1, NPC intracellular cholesterol transporter 1 (Homo sapiens), O15118 [I1061T]; test: Chaperone activity at FLAG/GFP-tagged NPC1 I1061T mutant (unknown origin) expressed in HEK293 cells assessed as increase in localization of protein mutant in late endosomes at 1 uM after 24 hrs by Hoechst 33342 staining based fluorescence microscopic analysis; assay type: cell-based
[5] = tested on: T1, NPC intracellular cholesterol transporter 1 (Homo sapiens), O15118 [I1061T]; test: Chaperone activity at FLAG/GFP-tagged NPC1 I1061T mutant (unknown origin) expressed in HEK293 cells assessed as increase in localization of protein mutant in late endosomes at 10 uM after 24 hrs by Hoechst 33342 staining based fluorescence microscopic analysis; assay type: cell-based
[6] = Solubility of the compound in DMEM medium at 30 uM; assay type: physicochemical
HEK293 [7] = test: Chaperone activity at FLAG/GFP-tagged human NPC1L1 L1072T/I1168T double mutant expressed in HEK293 cells assessed as localization of protein mutant in plasma membrane at 3 uM after 24 hrs fluorescence microscopic analysis; assay type: cell-based
[8] = tested on: T1, NPC intracellular cholesterol transporter 1 (Homo sapiens), O15118 [I1061T]; test: as §1; assay type: cell-based
[9] = tested on: T1, NPC intracellular cholesterol transporter 1 (Homo sapiens), O15118 [I1061T]; test: Stabilization of FLAG/GFP-tagged NPC1 I1061T mutant (unknown origin) expressed in HEK293 cells assessed as up regulation of NPC1 I1061T mutant expression after 24 hrs by Hoechst 33342 staining based fluorescence microscopic analysis; assay type: cell-based
HEK293 [10] = test: Stabilization of FLAG/GFP-tagged human NPC1L1 L1072T/I1168T double mutant expressed in HEK293 cells assessed as up regulation of NPC1L1 L1072T/I1168T double mutant expression at 3 to 30 uM after 24 hrs fluorescence microscopic analysis; assay type: cell-based
HEK293 [11] = test: Chaperone activity at FLAG/GFP-tagged human NPC1L1 L1072T/I1168T double mutant expressed in HEK293 cells assessed as localization of protein mutant in plasma membrane at 10 uM after 24 hrs fluorescence microscopic analysis; assay type: cell-based

SMILES	EC50 ([1]; read-out: EC50) [µM]	Activity [2]	other results
CCCCn1c(=O)c2ccccc2c2cc(NC(C)=O)ccc21	14		
CCCCn1c(=O)c2ccccc2c2ccccc21		inactive	
CCCCn1c(=O)c2ccccc2c2cc(C(=O)NC3CC3)ccc21		inactive	
CCCCCn1c(=O)c2ccccc2c2c(C(N)=O)cccc21			EC50 [1]: Not Active; solubility [3]: Insoluble
CCCCn1c(=O)c2ccccc2c2cc(N)ccc21		inactive	
CCCCn1c(=O)c2ccccc2c2cc(C(=O)NC)ccc21	> 30		
CCCCn1c(=O)c2ccccc2c2cc(C(=O)N(C)C)ccc21	> 30		
CCCCN1C(=O)c2ccccc2Oc2cc(C(N)=O)ccc21		inactive	
CCCCn1c(=O)c2ccccc2c2cc(NC(=O)C(F)(F)F)ccc21		inactive	
CCCCCCCn1c(=O)c2ccccc2c2cc(C(N)=O)ccc21	> 3		solubility [3]: Insoluble
CCCCn1c(=O)c2ccccc2c2cc(NS(C)(=O)=O)ccc21	14		
CCCCCCn1c(=O)c2ccccc2c2cc(C(N)=O)ccc21	> 3		solubility [3]: Insoluble
CCCCn1c(=O)c2ccccc2c2cc(C(=O)N(CC)CC)ccc21		inactive	
CCCCCn1c(=O)c2ccccc2c2ccc(C(N)=O)cc21			EC50 [1]: Not Active; solubility [3]: Insoluble
CCCn1c(=O)c2ccccc2c2cc(C(N)=O)ccc21	19		
CCCCn1c(=O)c2c(c3cc(C(N)=O)ccc31)CCC2		inactive	
CCCCN1C(=O)CCc2cc(C(N)=O)ccc21		inactive	
O=S(=O)(c1ccccc1)N(CC(F)(F)F)c1ccc(C(O)(C(F)(F)F)C(F)(F)F)cc1		inactive	
CCCCn1c(=O)c2c(c3cc(C(N)=O)ccc31)CCCCC2	13		
CCCCn1c(=O)c2ccccc2c2cc(NC(N)=O)ccc21		inactive	

SMILES	EC50 ([1]; read-out: EC50) [µM]	Activity [2]	other results
CCCCn1c(=O)c2ccccc2c2cc(N(C)C(C)=O)ccc21		inactive	
Cn1c(=O)c2ccccc2c2cc(C(N)=O)ccc21	> 30		
CCCCNC(=O)c1ccccc1-c1cccc(C(N)=O)c1		inactive	
NC(=O)c1ccc2c(c1)c1ccccc1c(=O)n2CCO			EC50 [1]: Not Active
CC(C)CCC[C@@H](C)[C@H]1CC[C@H]2[C@@H]3C[C@@H](O)[C@@]4(O)C[C@@H](OCC(=O)N5CCOCC5)CC[C@]4(C)[C@H]3CC[C@]12C	0.15		Activity [4]: Active
CCCCn1c(=O)c2ccccc2c2cc(C(N)=O)ccc21	11		
CC(C)n1c(=O)c2ccccc2c2cc(C(N)=O)ccc21			EC50 [1]: Not Active
CCCCn1c(=O)c2ccccc2c2cc(O)ccc21	> 30		
CCCCn1c(=O)c2ccccc2c2cc(C(=O)NC3CCCC3)ccc21		inactive	
C=CCn1c(=O)c2ccccc2c2cc(C(N)=O)ccc21	> 30		
CCCCn1c(=O)c2c(c3cc(C(N)=O)ccc31)CCCC2	30		
C[Si](C)(C)CCOCn1c(=O)c2ccccc2c2cc(C(N)=O)ccc21	16		
CCCCn1c(=O)c2ccccc2c2cc(C)ccc21		inactive	
CCCCn1c(=O)c2ccccc2c2cc(C(=O)N(CCO)CCO)ccc21	> 30		
CCCCn1c(=O)c2ccccc2c2cc(C(C)O)ccc21 (stereo not given)	> 30		
CCCCn1c(=O)c2ccccc2c2cc(C(F)(F)F)ccc21		inactive	
CCCCn1c(=O)c2ccccc2c2cc(C(=O)NC(C)C)ccc21		inactive	
CCCCn1c(=O)c2ccccc2c2cc(C(=O)NCc3ccccc3)ccc21		inactive	
CCCCn1c(=O)c2ccccc2c2cc(C(O)(C(F)(F)F)C(F)(F)F)ccc21		inactive	
CCCCn1c(=O)c2c(c3cc(C(N)=O)ccc31)CCCCCC2			Activity [5]: inactive; solubility [6]: Insoluble

SMILES	EC50 ([1]; read-out: EC50) [µM]	Activity [2]	other results
CCCCn1c(=O)c2ccccc2c2cc(C(=O)N3CCCCC3)ccc21		inactive	
CCCCCn1c(=O)c2ccccc2c2cccc(C(N)=O)c21			EC50 [1]: Not Active; solubility [6]: Insoluble
CCCC(=O)N1CC2=C(CCCC2)c2cc(C(N)=O)ccc21		inactive	
CCCCn1c(=O)c2ccccc2c2cc(C(C)=O)ccc21	> 30		
CCCCn1c(=O)c2ccccc2c2cc(C(=O)NC(C)(C)C)ccc21		inactive	
CCCCn1c(=O)c2ccccc2c2cc(OC(=O)N3CCOCC3)ccc21		inactive	
CCCCn1c(=O)c2ccccc2c2cc(C(=O)O)ccc21		inactive	
O=C(O)Cc1cccc(OCCCN(Cc2cccc(C(F)(F)F)c2Cl)CC(c2ccccc2)c2ccccc2)c1		inactive	
COCCn1c(=O)c2ccccc2c2cc(C(N)=O)ccc21			EC50 [1]: Not Active
CCCCn1c(=O)c2ccccc2c2cc(F)ccc21		inactive	
CCCCn1c(=O)c2ccccc2c2cc(C(=O)NC3CCCCC3)ccc21		inactive	
CCCCn1c(=O)c2ccccc2c2cc(C(=O)N3CCCC3)ccc21		inactive	
CCCCn1c(=O)c2ccccc2c2cc(C(=O)N3CCOCC3)ccc21		inactive	
CCn1c(=O)c2ccccc2c2cc(C(N)=O)ccc21	> 30		
C[C@H](CCC(=O)N(C)C)[C@H]1CC[C@H]2[C@@H]3CC=C4C[C@@H](OC(=O)N(CCO)CCO)CC[C@]4(C)[C@H]3CC[C@]12C			Activity (HEK293 [7]): Active
CCCCCn1c(=O)c2ccccc2c2cc(C(N)=O)ccc21	4.2		Activity [8]: Dose-dependent effect; Activity [9]: Dose-dependent effect; Activity (HEK293 [10]): inactive; Activity (HEK293 [11]): inactive
NC(=O)c1ccc2c(c1)c1ccccc1c(=O)n2CC1CCCCC1	3.6		solubility [6]: Insoluble
CCCCn1c(=O)c2ccccc2c2cc(CO)ccc21	> 30		
